Reference: patent US20240174631A1, “COMPOUNDS, COMPOSITIONS, AND METHODS FOR MODULATING FGF ACTIVITY” (Recovery Therapeutics, Inc., priority 2021, published 2024)

Key:
[1] = system: rodent model of stroke recovery (MCAO); test: Stroke recovery in vivo after middle cerebral artery occlusion (MCAO): limb placing and body swing tests; conditions: rat MCAO; 10 mg/kg i.v. on Day 1, 2 and 3 after MCAO; vs vehicle, p<0.001; up to Day 21
Procedure: Compound 2 (2-(1-benzhydrylpiperidin-4-yl)-N,N-diethyl-1,2,3,4-tetrahydroisoquinolin-6-amine) was tested for its effectiveness in a rodent model of stroke recovery. Twenty male Sprague Dawley Rats (Charles River Laboratories) each weighing 300-400 g were used in this experiment. First, anesthesia was induced in an induction chamber with 2-3% isoflurane in N2O:O2 (2:1) and maintained with 1-1.5% isoflurane via face mask. Adequate depth of anesthesia was assessed by lack of withdrawal to hindlimb pinch and loss of eyeblink reflex. Once anesthetized, animals received cefazolin sodium (40 mg/kg, i.p.) and buprenorphine SR (0.9-1 mg/kg, s.c.). Cefazolin was used as a prophylactic antibiotic. A veterinary ophthalmic ointment (Sodium Chloride hypertonicity ophthalmic ointment (Muro 128 Sterile Ophthalmic 5% Ointment)) was applied to the eyes. […]
Behavioral evaluations of sensorimotor function were done by investigators blinded to treatment assignment. […] For the forelimb-placing test, the examiner held the rat close to a tabletop and scored the rat's ability to place the forelimb on the tabletop in response to whisker, visual, tactile, or proprioceptive stimulation. Similarly, for the hindlimb placing test, the examiner assessed the rat's ability to place the hindlimb on the tabletop in response to tactile and proprioceptive stimulation. […]

[2] = Body weight pre- and post-MCAO; assay type: in vivo; conditions: rat MCAO; 10 mg/kg i.v. on Day 1, 2 and 3 after MCAO
Procedure: The rats were randomly assigned into two groups of ten each. Each group was injected intravenously (i.v.) with 2 ml/kg Compound 2 at 10 mg/kg or vehicle (18% Cremophor RH40 and 10% DMSO in 5% dextrose solution (D5WW)) on Day 1, 2, and 3 after MCAO. Day 0 is the day of the MCAO, and the days after the MCAO are numbered consecutively (Day 1, Day 2, Day 3, etc.) D-pre represents the day prior to the MCAO.
Typically, after an initial rapid rise, there is a continued slow, steady, and partial improvement in sensorimotor function (as measured by forelimb and hindlimb placing and body swing tests) during the first three weeks after stroke. […] The normal rise in body weight following surgery was not affected by treatment with Compound 2.

With CCN(CC)c1ccc2c(c1)CCN(C1CCN(C(c3ccccc3)c3ccccc3)CC1)C2 [Compound 2, 2-(1-benzhydrylpiperidin-4-yl)-N,N-diethyl-1,2,3,4-tetrahydroisoquinolin-6-amine] the “sensorimotor recovery (forelimb placing, hindlimb placing and body swing tests)” value [1] was “clear and significant augmentation of sensorimotor recovery” and the “rise in body weight following surgery” value [2] was “not affected”.
